Data as given in ChEMBL document CHEMBL1133412, “Rational design, synthesis and structure-activity relationships of antitumor (E)-2-benzylidene-1-tetralones and (E)-2-benzylidene-1-indanones” (Bioorg Med Chem Lett, 2000).

Experiments:
Assay type in all cases: functional, cell-based
A549 = test: Cytotoxicity evaluated against A549 tumor cell lines; significant activity; conditions: Homo sapiens
B16 = test: Cytotoxicity was evaluated against B16 tumor cell lines; Significant activity; conditions: Mus musculus
CCRF-CEM = test: Cytotoxicity evaluated against CEM tumor cell lines; Significant activity; conditions: Homo sapiens
NCI-H596 = test: Cytotoxicity evaluated against H596 tumor cell lines; Significant activity; conditions: Homo sapiens
NCI-H292 = test: Cytotoxicity evaluated against H292 tumor cell lines; Significant activity; conditions: Homo sapiens
HL-60 = test: Cytotoxicity evaluated against HL-60 tumor cell lines; Significant activity; conditions: Homo sapiens
Jurkat = test: In vitro test for antitumor activity against human Jurkat cell line using a formazan dye (MTT) conversion assay.
K562 = test: Cytotoxicity evaluated against K562 tumor cell lines; Significant activity; conditions: Homo sapiens
L1210 = test: Cytotoxicity evaluated against L1210 tumor cell lines; Significant activity; conditions: Mus musculus
MCF7 = test: Cytotoxicity evaluated against MCF-7 tumor cell lines; Significant activity; conditions: Homo sapiens
MOLT-4 = test: Cytotoxicity was evaluated against Molt-4 tumor cell lines; conditions: Homo sapiens
NIH3T3 = test: Cytotoxicity evaluated against NIH3T3 tumor cell lines; Significant activity; conditions: Mus musculus
WI-38 = test: Cytotoxicity evaluated against WI38 tumor cell lines; Significant activity; conditions: Homo sapiens
WIL2 = test: Cytotoxicity evaluated against WIL2 tumor cell lines; Significant activity; conditions: Homo sapiens

| SMILES | IC50 (Jurkat) [µM] | Cytotoxicity (A549) | Cytotoxicity (B16) | Cytotoxicity (CCRF-CEM) | Cytotoxicity (NCI-H596) | Cytotoxicity (NCI-H292) | Cytotoxicity (HL-60) | Cytotoxicity (K562) | Cytotoxicity (L1210) | Cytotoxicity (MCF7) | Cytotoxicity (MOLT-4) | Cytotoxicity (NIH3T3) | Cytotoxicity (WI-38) | Cytotoxicity (WIL2) |
| --- | --- | --- | --- | --- | --- | --- | --- | --- | --- | --- | --- | --- | --- | --- |
| COc1cccc(/C=C2\Cc3cc(OC)c(OC)cc3C2=O)c1 | 12.8 | Significant activity | Significant activity | Significant activity | Significant activity | Significant activity | Significant activity | Significant activity | Significant activity | Significant activity | Significant activity | Significant activity | Significant activity | Significant activity |
| COc1cc2c(cc1OC)C(=O)/C(=C/c1cccc(Cl)c1)CC2 | 9 | Significant activity | Significant activity | Significant activity | Significant activity | Significant activity | Significant activity | Significant activity | Significant activity | Significant activity | Significant activity | Significant activity | Significant activity | Significant activity |
| COc1cc2c(cc1OC)C(=O)/C(=C/c1cccc([N+](=O)[O-])c1)CC2 | 9 | Significant activity | Significant activity | Significant activity | Significant activity | Significant activity | Significant activity | Significant activity | Significant activity | Significant activity | Significant activity | Significant activity | Significant activity | Significant activity |

The next compounds have a lower IC50 (Jurkat) than those just listed; values first:

| IC50 (Jurkat) [µM] | SMILES | Cytotoxicity (A549) | Cytotoxicity (B16) | Cytotoxicity (CCRF-CEM) | Cytotoxicity (NCI-H596) | Cytotoxicity (NCI-H292) | Cytotoxicity (HL-60) | Cytotoxicity (K562) | Cytotoxicity (L1210) | Cytotoxicity (MCF7) | Cytotoxicity (MOLT-4) | Cytotoxicity (NIH3T3) | Cytotoxicity (WI-38) | Cytotoxicity (WIL2) |
| --- | --- | --- | --- | --- | --- | --- | --- | --- | --- | --- | --- | --- | --- | --- |
| 6.3 | COc1cc2c(cc1OC)C(=O)/C(=C/c1cc(C)c(OCC(=O)O)c(C)c1)C2 | Significant activity | Significant activity | Significant activity | Significant activity | Significant activity | Significant activity | Significant activity | Significant activity | Significant activity | Significant activity | Significant activity | Significant activity | Significant activity |
| 1.16 | COc1cc2c(cc1OC)C(=O)/C(=C/c1ccc(O)c(C)c1)C2 | Significant activity | Significant activity | Significant activity | Significant activity | Significant activity | Significant activity | Significant activity | Significant activity | Significant activity | Significant activity | Significant activity | Significant activity | Significant activity |
| 0.4 | COc1cc2c(cc1OC)C(=O)/C(=C/c1cc(C)c(OC(C)=O)c(C)c1)C2 | Significant activity | Significant activity | Significant activity | Significant activity | Significant activity | Significant activity | Significant activity | Significant activity | Significant activity | Significant activity | Significant activity | Significant activity | Significant activity |
